Measurements as given in US9320271B2, “Microbial composition” (Rohm and Haas Company, priority 2011, dated 2016).

Columns and labels:
[1] = tested on: Escherichia coli (10536 strain); assay: 15 second contact kill test versus E. coli (actives in water, mean bacterial survival NMBS); type: cell-based; settings: for MBC (minimum biocidal concentration of antimicrobial components): Table 27; for NMBS: no alcohol, 15 s
Description: 15 Second Contact Kill Test Versus E. Coli and S. Aureus
Antimicrobial efficacy is tested against a representative pathogenic bacterial organism, Gram negative Escherichia coli. Concentrations of actives are expressed in terms of the percentage weight/volume (% w/v) throughout Example 1.
An overnight culture of Escherichia coli (10536 strain) was prepared in 50 ml total volume of TSB broth, grown for ca. 18 hrs at 37° C. and shaken at 150 rpm. 1 ml of this overnight E. coli culture was transferred to 50 ml of fresh TSB broth and incubated at 37° C. at 150 rpm for ca. 4 hours. This culture was separated into equal volumes and centrifuged at 4000 rpm for 15 minutes, washed with sterile saline (0.85% NaCl), centrifuged once more and re-suspended in saline to give a final concentration of 0.8 OD620 equivalent to about 10^8 cells per milliliter for this particular organism. Here, OD620 indicates the absorbance of a sample in a cuvette of 1.0 cm path length at a wavelength of 620 nm. This bacterial stock was used for assaying against antimicrobial actives (in triplicate). S. Aureus Bacterial Stock
The following assay describes the testing of 8 materials using 6 dilutions across half of a 96-well micro titre plate (MTP). Using this approach it is possible to assay 16 actives (without replicates) with one full dilution plate, replicating this set up in two halves of the plate columns, 1-6 and 7-12. 1M solutions of the test actives were prepared in dimethylsulphoxide (DMSO). […] Aliquots (270 μl) of the materials at 1.11 times the final concentration were dispensed into the wells of the MTP along one column (A1-H1). This MTP was labelled as the “Screening plate”. In another MTP, labelled as the “Dilution plate”, […] of D/E neutralising solution from DIFCO Composition was added to column 1. The composition of the neutralising solution was as follows: pancreatic digest of casein, 5.0 g/L; Yeast Extract, 2.5 g/L; Dextrose, 10 g/L, sodium thioglycollate, 1.0 g/L, sodium thiosulphate, 6.0 g/L; sodium bisulphite, 2.5 g/L; Polysorbate 80, 5.0 g/L; lecithin 7.0 g/L; bromocresol purple, 0.02 g/L with a pH in the range 7.6±0.2. 270 μl of tryptone diluent solution was added to all the remaining wells of the Dilution MTP (columns 2-6). Bacterial stock (30 μl) was then added to the prepared 270 μl of the solution of actives in the Screening Plate and mixed, using a multichannel pipette with 8 tips to aspirate and dispense the same volume of bacterial stock in parallel to 8 wells in rows A-H. After a contact time of 15 seconds, the mixtures were quenched by transferring 30 μl volumes of the mixtures into the 270 μl D/E neutralising solution in the prepared dilution plate, using aspiration to mix. After exactly 5 minutes in the D/E neutralising solution, 30 μl volumes were transferred from column 1 to column 2 of the Dilution MTP and mixed, before transferring further 30 μl volumes from column 2 into column 3. This process was repeated serially diluting the bacteria across the plate to column 6. 30 μl volumes from each well in the Dilution MTP were transferred onto pre-labelled segment of Tryptone Soya Agar (TSA) plates starting from the lowest bacterial concentration (highest dilution, column 6) to the highest bacterial concentration (column 1). The TSA plates were allowed to stand for ca. 2 hours so that the 30 μl inocula spots could dry and the plates were then inverted and incubated overnight at 37° C. before enumerating the bacterial colonies at the labelled dilutions to determine the effects of the actives on bacterial growth. Calculation of Results Mean bacterial survival numbers NMBS (expressed in Log CFU/ml) are obtained by first determining the segment of the TSA plate where the number of bacterial colonies is countable.

[2] = tested on: Escherichia coli (E. coli—ATCC #10536); assay: Automated assessment of efficacy in surfactant base (2.85% sodium cocoyl glycinate and 1.85% sodium lauroamphoacetate, pH 10.0), 15 seconds exposure; type: cell-based; settings: for Δ OD 450 nm = OD450 (time = 16 hours) − OD450 (time zero), Mean / Δ OD 590 nm OD590 (time = 16 hours) − OD590 (time zero), Mean / No. of replicates showing growth (out of 4): alone, model surfactant solution; for MBC (minimum biocidal concentration): in 2.85% sodium cocoyl glycinate + 1.85% sodium lauroamphoacetate solution at pH 10, E. coli
Description: Test Methodology for Automated Assessment of Efficacy in Surfactant Base Microbiocidal Activity of Actives as Per the Invention in a Model Surfactant Medium Test Methodology for Automated Assessment of Efficacy in Surfactant Base In these examples, the efficacy of combinations of actives were tested in a surfactant cleansing formulation comprising 2.85% sodium cocoyl glycinate and 1.85% sodium lauroamphoacetate. This corresponds to a 50% in use dilution with water of a neat formulation containing 5.7% cocoyl glycinate and […] % sodium, lauroamphoacetate during hand washing. Solutions were prepared such that the concentrations of the surfactant components and test actives were 1.1× the final desired concentration in order to allow for dilution with the bacterial inoculum in the test. The solutions were manually adjusted to pH 10.0 by dropwise addition of sodium hydroxide solution, as measured with a pH meter at ambient temperature. The efficacy of the combinations of the present invention was determined against Escherichia coli (E. coli—ATCC #10536), at a concentration of approximately 1×10^8 bacteria per mL. Tests were conducted using standard microtiter plate assays using an automated liquid handling system. 270 μl of the surfactant test solution was pipetted into each well of the microtitre plate and 30 μl of the bacterial suspension was then added. Alter exactly 15 seconds of bacterial exposure, a 30 μl volume of bacterial cells was withdrawn and transferred to 270 μl of D/E quench solution. After 5 minutes in the D/E quench, the optical density (OD) was measured for each plate in turn at two specific wavelengths (450 nm and 590 nm). These provide a dual check of antimicrobial activity, as the OD450 reading is specific for the yellow colour of D/E quench when bacterial growth is observed, whereas OD590 is specific for the initial purple colour of the D/E quench which is retained if no bacterial growth is observed. After the time zero OD measurements, plates were then incubated at 37° C. overnight (16 hours) before repeating the OD measurements. Delta OD values were calculated by subtracting […]. Bacterial growth is observed as an increase in OD450 and a decrease in ΔOD590. To identify antibacterially efficacious systems (those preventing appreciable bacterial growth after incubation), the following threshold changes in OD readings have been adopted: if (1). OD450 increases by less than 0.2 absorbance unit on incubation and (2). OD590 decreases by less than 0.35 unit on incubation. Conversely, where OD450 increases by more than 0.2 AU and OD590 decreases by more than 0.35 unit after incubation, corresponding to a colour shift from purple to yellow, the test system allows bacterial growth and is not deemed efficacious. Four replicate measurements in the same plate have been made for each test system. The number of replicate wells showing either bacterial growth or no growth is also readily assessed by eye by following the colour change. Dose responses for individual components and binary mixtures of actives at a fixed concentration ratio were generated by sequential dilution of liquors with further surfactant solution to obtain a series of endpoints. […] In some selected cases, the combinations were also tested at the weight ratio 1:1.

[3] = Table 28, E. coli, component alone

Row | Compound | MBC (minimum biocidal concentration of antimicrobial components) ([1]; component alone) [% w/v] | Antimicrobial alcohol MBC [1, 3] | Δ OD 450 nm = OD450 (time = 16 hours) − OD450 (time zero), Mean ([2]; 0.2% w/v) | Δ OD 590 nm OD590 (time = 16 hours) − OD590 (time zero), Mean ([2]; 0.2% w/v) | Δ OD 450 nm = OD450 (time = 16 hours) − OD450 (time zero), Mean ([2]; 0.3% w/v) | Δ OD 590 nm OD590 (time = 16 hours) − OD590 (time zero), Mean ([2]; 0.3% w/v) | No. of replicates showing growth (out of 4) ([2]; 0.5% w/v) | Δ OD 450 nm = OD450 (time = 16 hours) − OD450 (time zero), Mean ([2]; 0.5% w/v) | Δ OD 590 nm OD590 (time = 16 hours) − OD590 (time zero), Mean ([2]; 0.5% w/v) | Δ OD 450 nm = OD450 (time = 16 hours) − OD450 (time zero), Mean ([2]; […] w/v) | Δ OD 590 nm OD590 (time = 16 hours) − OD590 (time zero), Mean ([2]; […] w/v) | MBC (minimum biocidal concentration) [2] [% w/v] | NMBS ([1]; 0.0125% 4-benzylphenol, E. coli) [log CFU/ml] | NMBS ([1]; 0.05% 4-benzylphenol, E. coli) [log CFU/ml] | Phenolic compound MBC [1, 3] | NMBS ([1]; […] 4-benzylphenol, E. coli) [log CFU/ml] | No. of replicates showing growth (out of 4) ([2]; 0.3% w/v)
1 | CC1=CC[C@@H](CO)[C@H](C)C1 (relative stereo) [floralol, Trans-4,6-dimethyl-3-Cyclohexene-1-methanol] | 0.3 | 0.3 % (w/v) | −1.43 | 0.35 | −1.20 | 0.55 | 0 | −0.06 | 0.09 | −0.29 | 0.23 | 0.4 |  |  |  |  | 
2 | Oc1ccc(Cc2ccccc2)cc1 [4-benzylphenol, 4-benzyl phenol] | 0.05 |  |  |  |  |  |  |  |  |  |  |  | 7.75 | 0.00 | 0.5 % (w/v) | 4.20 | 
3 | CC1CCC(CO)C(C)C1 (stereo not drawn) [dihydrofloralol, 2,4-Dimethylcyclohexylmethanol] | 0.5 | 0.5 % (w/v) | −1.39 | 0.41 | −1.15 | 0.60 | 0 | −0.06 | 0.10 | −0.28 | 0.28 | 0.4 |  |  |  |  | 4
